Results published in the NIST ThermoML archive (doi:10.1021/je101191e).
± gives the expanded uncertainty stated by the source.

Legend:
[1] = 298.15 K; 101.33 kPa; Liquid; Pycnometric method
[2] = xn = mol fraction of the nth substance listed; details: 298.15 K, 101.3 kPa, Liquid; for viscosity: Concentric cylinders viscometry; for mass density: Pycnometric method

CCCCCCCC(=O)O [octanoic acid]
Details	mass density [kg/m3]
[1]	910 ± 3.7

CC#N [acetonitrile] + CCCCCCCC(=O)[O-].CC[NH+](C(C)C)C(C)C
[2], x2 = 0
Details	mass density [kg/m3]	viscosity [mPa·s]
–	768.6 ± 3.1	0.335 ± 0.021

CCCCCCCC(=O)[O-].CC[NH+](C(C)C)C(C)C [N-ethyl-N-isopropylpropan-2-aminium octanoate] + CC#N
[2]
Details	mass density [kg/m3]	viscosity [mPa·s]
x1 = 0.0948	815.2 ± 3.3	–
x1 = 0.1	–	1.291 ± 0.078
x1 = 0.193	834.3 ± 3.4	–
x1 = 0.2	–	1.947 ± 0.12
x1 = 0.2908	842.2 ± 3.4	–
x1 = 0.3	–	2.865 ± 0.17
x1 = 0.3981	847.3 ± 3.5	–
x1 = 0.4	–	4.921 ± 0.3
x1 = 0.5	–	6.897 ± 0.42
x1 = 0.505	850 ± 3.5	–
x1 = 0.5846	852 ± 3.5	–
x1 = 0.6	–	8.725 ± 0.53
x1 = 0.6749	853.3 ± 3.5	–
x1 = 0.7	–	11 ± 0.67
x1 = 0.7994	855.8 ± 3.6	–
x1 = 0.8	–	13.31 ± 0.82
x1 = 0.86	856.5 ± 3.6	–
x1 = 0.9	–	14.82 ± 0.91
x1 = 1	858.5 ± 3.7	13.52 ± 0.84

CCCCCCCC(=O)[O-].CC[NH+](C(C)C)C(C)C [N-ethyl-N-isopropylpropan-2-aminium octanoate] + O
[2]
Details	mass density [kg/m3]	viscosity [mPa·s]
x1 = 0.0948	955.1 ± 3.8	–
x1 = 0.1	–	36.61 ± 2.2
x1 = 0.193	927.3 ± 3.7	–
x1 = 0.2	–	52.36 ± 3.1
x1 = 0.2908	905.7 ± 3.7	–
x1 = 0.3	–	42.39 ± 2.6
x1 = 0.3981	890.6 ± 3.6	–
x1 = 0.4	–	32.19 ± 1.9
x1 = 0.5	–	27.62 ± 1.7
x1 = 0.505	877.4 ± 3.6	–
x1 = 0.5846	872.2 ± 3.6	–
x1 = 0.6	–	26.19 ± 1.6
x1 = 0.6749	867.2 ± 3.6	–
x1 = 0.7	–	21.29 ± 1.3
x1 = 0.7994	862.9 ± 3.6	–
x1 = 0.8	–	18.05 ± 1.1
x1 = 0.86	861 ± 3.6	–
x1 = 0.9	–	16.65 ± 1
x1 = 1	858.5 ± 3.7	13.52 ± 0.84

CC#N [acetonitrile] + CCCCCCC(=O)[O-].CC[NH+](C(C)C)C(C)C
[2], x2 = 0
Details	mass density [kg/m3]	viscosity [mPa·s]
–	768.6 ± 3.1	0.335 ± 0.021

O [water] + CCCCCCC(=O)[O-].CC[NH+](C(C)C)C(C)C
Details	viscosity [mPa·s]
[2], x2 = 0	0.891 ± 0.054

CCN(C(C)C)C(C)C [N-ethyl-N-(1-methylethyl)-1-methylethanamine]
Details	mass density [kg/m3]
[1]	742 ± 3

CCCCCCC(=O)[O-].CC[NH+](C(C)C)C(C)C [N-ethyl-N-isopropylpropan-2-aminium heptanoate] + CC#N
[2]
Details	mass density [kg/m3]	viscosity [mPa·s]
x1 = 0.1	–	1.09 ± 0.066
x1 = 0.1016	820.6 ± 3.3	–
x1 = 0.2	–	1.826 ± 0.11
x1 = 0.2003	840.8 ± 3.4	–
x1 = 0.3	–	2.51 ± 0.15
x1 = 0.3046	849.7 ± 3.5	–
x1 = 0.4	–	3.875 ± 0.24
x1 = 0.402	853.8 ± 3.5	–
x1 = 0.5	–	5.158 ± 0.31
x1 = 0.5021	857.1 ± 3.5	–
x1 = 0.6	–	7.013 ± 0.43
x1 = 0.6083	859.8 ± 3.6	–
x1 = 0.7	–	9 ± 0.55
x1 = 0.705	862.3 ± 3.6	–
x1 = 0.8	–	11.6 ± 0.71
x1 = 0.8013	863.9 ± 3.6	–
x1 = 0.9	–	13.5 ± 0.83
x1 = 0.9013	865.4 ± 3.7	–
x1 = 1	866.5 ± 3.8	12.23 ± 0.76

CCCCCCC(=O)O [heptanoic acid]
Details	mass density [kg/m3]
[1]	918 ± 3.8

O [water] + CCCCCCCC(=O)[O-].CC[NH+](C(C)C)C(C)C
Details	viscosity [mPa·s]
[2], x2 = 0	0.891 ± 0.054

CCCCCCC(=O)[O-].CC[NH+](C(C)C)C(C)C [N-ethyl-N-isopropylpropan-2-aminium heptanoate] + O
[2]
Details	mass density [kg/m3]	viscosity [mPa·s]
x1 = 0.0998	966.3 ± 3.9	–
x1 = 0.1	–	21.99 ± 1.3
x1 = 0.198	936.2 ± 3.8	–
x1 = 0.2	–	43.71 ± 2.6
x1 = 0.299	913.6 ± 3.7	–
x1 = 0.3	–	41.58 ± 2.5
x1 = 0.4	–	31.51 ± 1.9
x1 = 0.4007	900.3 ± 3.6	–
x1 = 0.5	–	26.92 ± 1.6
x1 = 0.5007	889.9 ± 3.6	–
x1 = 0.5941	884 ± 3.6	–
x1 = 0.6	–	23.65 ± 1.4
x1 = 0.6913	877.2 ± 3.6	–
x1 = 0.7	–	22.67 ± 1.4
x1 = 0.7896	872.6 ± 3.6	–
x1 = 0.8	–	18.07 ± 1.1
x1 = 0.9	–	14.44 ± 0.89
x1 = 0.9014	869.5 ± 3.7	–
x1 = 1	866.5 ± 3.8	12.23 ± 0.76
